# Results from patent publication US9006170B2, “Compositions for elastogenesis and connective tissue treatment” (Human Matrix Sciences, LLC, priority 2004, dated 2015).
# Read-outs that look alike come from different tables or passages of the source.
# What was measured:
# [1] = system: normal human skin fibroblasts; test: Quantitative assay of insoluble elastin ([3H]-valine metabolic labeling) in fibroblast cultures; format: cell-based; conditions: for reversal of the inhibitory effect of 200 μM iron treatment on elastin deposition: antioxidant applied with 200 μM of iron
# elastin mRNA [2] = test: One-step RT-PCR of elastin and β-actin mRNA
# Description: Total RNA was extracted using the RNeasy Mini Kit, according to manufacturers instructions, and 1 μM of total RNA was added to each one step RT-PCR (Qiagen OneStep RT-PCR Kit) and reactions were set up according to manufacturers instructions in a total volume of 25 μl. The reverse transcription step was performed for elastin and β-actin reactions at 50 ° C. for 30 minutes followed by 15 minutes at 95 ° C.
# 5 μl samples of the elastin and β-actin PCR products from each reaction were ran on a 2% agarose gel and post-stained with ethidium bromide. The amount of elastin mRNA was standardized relative to the amount of β-actin mRNA.
# elastin mRNA [3] = test: Northern blot analysis of elastin mRNA levels in human aortic smooth muscle cells; format: cell-based
# Description: (§1) Smooth muscle cells were isolated in the following manner porcine thoracic aortas and coronary arteries were dissected from young pigs obtained from local slaughterhouse. Passage two of human aortic smooth muscle cells from a normal subject was purchased from Clonetics Inc. (San Diego, Calif.). Arterial tissues were diced and explanted in a-MEM (modified Eagle's medium) supplemented with 10% FBS, 25 mM HEPES, L-glutamine, and […]. Tissue samples were diced and cells isolated by collagenase and elastase digestion as previously described.
# (§2) Porcine thoracic aortas and coronary arteries were dissected from young pigs obtained from local slaughterhouse. Passage two of human aortic smooth muscle cells from a normal subject was purchased from Clonetics Inc. (San Diego, Calif.). Arterial tissues were diced and explanted in a-MEM (modified Eagle's medium) supplemented with 10% FBS, 25 mM HEPES, L-glutamine, and […]. Tissue samples were diced and cells isolated by collagenase and elastase digestion as previously described. Cells were maintained in a-MEM supplemented with 5% FBS and were routinely passaged by trypsinization. All the experiments were performed using SMC at passage 2-5. […] Aortic and coronary artery SMC's were plated at the initial density 50,000 dish, either directly on plastic or on coverslips, and maintained for 1-2 days until confluency. Cultures were then divided into experimental groups and maintained in the presence and absence of experimental reagents for 7 days. Fresh media were added at days 3 and 5.
# human skin = conditions: 10 μM MnSO4 or 20 μM FAC, 7 days; for elastic fibers (Movat's Pentachrome, ×400): person
# Source text: Materials and Methods. Organ cultures of explants were derived from surgical biopsies of human skin. […] All organ cultures were fixed in 1% buffered formalin and their transversal histological sections were stained with Movat pentachrome method to visualize major components of extracellular matrix, including elastic fibers.
# [4] = system: normal human skin fibroblasts
# Description: Assessment of Cell Proliferation. Normal human skin fibroblasts were suspended in DMEM containing 10% FBS and plated in 35 mm culture dishes (100,000 cells/dish) in quadruplicates. […] These cultures were then washed in PBS and treated with cold 5% trichloroacetic acid twice for 10 minutes at 4° C. For 30 minutes, 0.5 ml of 0.3 N NaOH was added to all dishes, and 200 μl aliquots of each culture were mixed with scintillation fluid and counted.
# [5] = system: normal human skin fibroblasts; remark: listed apart in the source
# Description: Since the net production of elastic fibers depend on the coordinated expression of multiple factors, the expression of three major factors facilitating elasogenesis by immunoflourecent microscopy after exposure of normal human skin fibroblasts to low (20 μM) and high (200 μM) iron concentrations was tested.
# elastin mRNA [6] = conditions: 24 hours
# Description: (§3) The intensity of elastin message signal detected by Northern blotting was assessed by densitometry after normalization to GAPDH message levels and the corresponding values are shown in the bar graph in arbitrary units. Elastin mRNA levels assessed by TaqMan real time PCR analysis were normalized to the corresponding levels of GAPDH mRNA and expressed as a percentage of untreated control values.
# elastin mRNA [7] = system: elastin mRNA
# Description: (§4) Quantitative TaqMan RT-PCR. […] In order to assess the effect of iron on elastin mRNA stability parallel quadruplicate cultures were grown to confluency in 100 mm dishes. […] The reverse transcriptase reaction was performed using 1.5 μg of total RNA, oligo(dT)'s and the SuperScript First-Strand synthesis system (Invitrogen Life Technologies) according to manufacturer's instructions.
# (§5) Elastin mRNA levels was measured by real-time quantitative PCR method performed on the ABI PRISM 7700 Sequence Detection System (Applied Biosystems, Foster City, Calif.). For each treatment two distinct amplifications were carried out in parallel in order to amplify elastin cDNA and GAPDH cDNA. The amplification reactions were performed in 25 μl volumes containing 30 ng of cDNA per treatment in triplicate, 12.5 μl of 2× TaqMan Universal PCR Master Mix (Applied Biosystems), and 1.25 μl of 20× Assays-on-Demand Gene Expression probe for elastin (Applied Biosystems) or TaqMan GAPDH probe (Applied Biosystems). Elastin mRNA levels from each treatment was normalized to the corresponding amount of GAPDH mRNA levels. Water controls and samples without PCR mixtures were set up to eliminate the possibility of significant DNA contamination. Final results were expressed as the mean of two independent experiments.
# as §3
# elastin mRNA [8] = conditions: 60 μM DRB
# Description: as §4, §5
# Since steady-state mRNA levels reflect the balance between transcription efficiency and message decay, we further studied whether fluctuations in iron concentration may affect elastin mRNA stability. […] At indicated time points total RNA was extracted and subjected to quantitative TaqMan RT-PCR analysis. The results are expressed as the mean±SD from two separate experiments conducted in quadruplicate cultures.
# [9] = system: normal human skin fibroblasts; conditions: for elastin deposition (immunostaining): 3 days
# serine proteinases = conditions: 2-200 μM iron
# [10] = system: normal human skin fibroblasts; remark: listed apart in the source
# Description: Normal human skin fibroblasts were grown to confluency in 35 mm culture dishes (100,000 cells/dish) in quadruplicates. Then, 2 μCi of [^3H]-valine/ml of fresh media was added to each dish, along with or without 2, 20, 100, 200 μM of FAC. […] The cells were extensively washed with PBS and the soluble proteins present in the intracellular compartments were extracted overnight at 4° C. with 0.1 M acetic acid in the presence of proteinase inhibitors. After centrifugation the supernatants were pre-cleaned by 30 minutes incubation with 50 p. […] The protein A-containing beads were sedimented by centrifugation; washed with immunoprecipitation buffer, mixed with scintillation fluid and counted. […] The resulting pellets containing the insoluble elastin were then solubilized by boiling in 200 μl of 5.7 N HCl for 1 hour, and the aliquots were mixed in scintillation fluid and counted. […] Final results reflecting amounts of metabolically labeled insoluble elastin in individual cultures were normalized per their DNA content and expressed as CPM/1 DNA. […] The conditioned media was then removed and the cell layers were washed and incorporation of [^3H]-valine into the insoluble elastin was assessed as described above.
# [11] = system: normal human skin fibroblasts; conditions: 3 hours
# Description: Assays of Intracellular ROS levels. […] This probe passively diffuses into the cell interior and only upon oxidation it releases a fluorescent product that can be visualized under fluorescent microscope or captured by flow cytophotometry, when it is excited at 480 nm. To measure intracellular ROS production normal human skin fibroblasts were plated on glass coverslips in 35 mm dishes (50,000 cells/dish) and grown to confluency. The cells were then washed with PBS and incubated with or without 10 μM of CM-H2DCFDA for 30 minutes in fresh media. The cells were then washed again in PBS and incubated with new media in the presence or absence of FAC (2-400 μM) for 3 additional hours. The cells were then washed twice with PBS before being mounted to the glass slides and the images were captured under a fluorescent microscope under identical parameters of contrast and brightness.
# In addition, the quantification of this reaction was performed by flow cytometry (λ excitation 480 nm; λ emission 520 nm). Quadruplicate cultures of fibroblasts were preincubated with CM-H2DCFDA and maintained in the presence or absence of FAC as described above. […] They were then collected by centrifugation (4° C., 1000 RPM for 3 minutes), washed in cold PBS and fixed with 4% formaldehyde for 10 minutes in the dark and analyzed by flow cytometry (FACSCalibur, Beckton Dickinson).
# [12] = system: human dermal fibroblast cultures; test: Immunohistochemical analysis of elastin synthesis in human dermal fibroblast cultures; format: cell-based; conditions: for synthesis of elastin (elastic fibers detected by immunocytochemistry): all concentrations 0.5 μM-2.0 μM, fibroblasts from various aged subjects; for deposition of extracellular matrix components, elastin and collagen type I: human dermal fibroblast cultures
# Source text: Refer to FIG. 1, which illustrates both the elastic fibers detected by immunocytochemistry and the morphometric analysis of elastic fibers. MnCl2 and Mn-PCA were introduced into the fibroblasts derived from the various aged subjects over various concentrations.
# human dermal fibroblasts = test: Cellular proliferation of human dermal fibroblasts (total DNA content and [3H]-thymidine incorporation); format: cell-based; conditions: person
# Source text: Manganese compositions induce cellular proliferation.
# [13] = system: human aortic smooth muscle cells; test: Metabolic labeling of newly synthesized insoluble elastin by human aortic smooth muscle cells; format: cell-based
# Description: as §1
# as §2, with “Cultures were then divided into experimental groups and maintained in the presence and absence of experimental reagents for 7 days. Fresh media were added at days 3 and 5.” left out
# [14] = system: human dermal fibroblast cultures; conditions: immunohistochemistry, versus control
# Description: In some experiments the serum free medium was also used.
# The above prepared fibroblasts and smooth muscle cells were cultured in the presence or absence of (0.5-5 μM) of a manganese salt. Deposition of extracellular matrix components, elastin and collagen type I was assessed in 5-10 days old cultures by immunohistochemistry with a panel of specific antibodies.
# [15] = equimolar (20 μM) ferric iron and DFO
compound,measurement,setting,value
"CC(=O)N(O)CCCCCNC(=O)CCC(=O)N(O)CCCCCNC(=O)CCC(=O)N(O)CCCCCN [DFO, desferrioxamine]",iron induced increase in elastin deposition,[1]; [15],abolished the iron induced increase
same,elastin mRNA levels,"elastin mRNA [2]; 20 μM of DFO, compared to untreated control",significantly reduced
same,iron induced increase in elastin mRNA levels,elastin mRNA [2]; [15],abolished the iron induced increase
"O=S(=O)([O-])[O-].[Mn+2] [MnSO4, manganese sulfate]",transcription of the elastin gene (elastin mRNA levels),elastin mRNA [3],can induce transcription of the elastin gene
same,agitation and migration of stratum basale-derived cells with fibroblastic phenotype,human skin,higher than control level of agitation and migration of stratum basale-derived cells with fibroblastic phenotype
same,infiltrating activated (differentiating) cells (×600),human skin,seem to contain more such activated cells
same,"elastic fibers (Movat's Pentachrome, ×400)",human skin,stimulated production of long elastic fibers primarily running perpendicular to the epidermis
CC1(C)CC(O)CC(C)(C)N1[O] [Tempol],reversal of the inhibitory effect of 200 μM iron treatment on elastin deposition,[1],not observed
catalase,reversal of the inhibitory effect of 200 μM iron treatment on elastin deposition,[1],not observed
ferric ammonium citrate [FAC],[3H]-thymidine incorporation (proliferation rate),"[4]; high doses of iron (100 μM and 200 μM), 72 hours, listed as iron",proliferate with a significantly higher rate than untreated cells
same,cellular proliferation rate,[4]; low iron concentrations (lower than 25 μM),did not cause any increase in cellular proliferation rate
same,immunodetectable levels of elastin binding protein (EBP),[5],not changed
same,immunodetectable levels of fibrillin-1,[5],not changed
same,immunodetectable levels of lysyl oxidase,[5],not changed
same,"elastin mRNA levels (Northern blot, corrected for GAPDH)",elastin mRNA [6]; 200 μM of iron,returned back to control values
same,"elastin mRNA levels (Northern blot, corrected for GAPDH)",elastin mRNA [6]; 2 and 20 μM iron,dose-dependent increase in elastin mRNA levels
same,increase in elastin mRNA levels,"elastin mRNA [7]; 20 μM of iron, 24 hours",~3 fold
same,tropoelastin mRNA (real-time RT-PCR),"elastin mRNA [7]; 200 μM of iron, 24 hours",significant reduction in tropoelastin mRNA
same,increase in the elastin mRNA level,elastin mRNA [7]; low iron concentrations (2-20 μM),2-3 fold
same,elastin mRNA half-life,elastin mRNA [8]; 20 μM iron,~16 h
same,decrease in elastin mRNA level,elastin mRNA [8]; 200 μM iron,about 2.5 fold
same,elastin mRNA half-life,elastin mRNA [8]; 200 μM iron,~6 h
same,agitation and migration of stratum basale-derived cells with fibroblastic phenotype,human skin,higher than control level of agitation and migration of stratum basale-derived cells with fibroblastic phenotype
same,infiltrating activated (differentiating) cells (×600),human skin,seem to contain more such activated cells
same,"elastic fibers (Movat's Pentachrome, ×400)",human skin,induced deposition of shorter elastic fibers primarily running parallel to the epidermis
same,elastin deposition (immunostaining),[9]; 100 μM iron,did not induce better elastin deposition then treatment with 20
same,elastin deposition (immunostaining),[9]; 200 μM of iron,dragged elastin deposition back to the control levels
same,production of elastic fibers (immunostaining),"[9]; 2 and 20 μM of iron, 3-day-long treatment",significantly increased the production of elastic fibers over control levels
same,elastolytic activity of serine proteinases,serine proteinases,did not stimulate elastolytic activity of serine proteinases
same,[3H]-valine-labeled tropoelastin synthesis,"[10]; 2 and 20 μM iron, 72 hours",syntesize more [^3H]-valine-labeled tropoelastin than untreated counterparts
same,tropoelastin production,[10]; 100 and 200 μM iron versus 20 μM,lower tropoelastin production as compared to those treated with 20 μM
same,intracellular ROS production,[11]; 2-40 μM of iron,produced the same amount of ROS as untreated controls
same,intracellular ROS production,[11]; 100-400 μM iron,dose dependant increase in ROS production
manganese chloride [MnCl2],synthesis of elastin (elastic fibers detected by immunocytochemistry),[12],induce synthesis of elastin
same,"deposition of extracellular matrix components, elastin and collagen type I",[12],induced
same,transcription of the elastin gene (elastin mRNA levels),elastin mRNA [3],can induce transcription of the elastin gene
manganese salt of L-Pyrrolidone Carboxylic Acid [Mn-PCA],synthesis of elastin (elastic fibers detected by immunocytochemistry),[12],induce synthesis of elastin
same,"deposition of extracellular matrix components, elastin and collagen type I",[12],induced
same,dermal fibroblast proliferation,human dermal fibroblasts,stimulate dermal fibroblast proliferation
same,more elastin transcription over the control,elastin mRNA [3],~66%
same,transcription of the elastin gene (elastin mRNA levels),elastin mRNA [3],can induce transcription of the elastin gene
same,increase in elastin synthesis over the control,[13],two-fold
same,deposition of collagen type I,[14],increased deposition in collagen type I
